Test results as given in US9156889B2, “Drug transporter permeating blood-brain barrier, peptide and use thereof” (priority 2011, dated 2015).
Where no end group is shown, it is not given here.

Key:
[1] = system: poliovirus (Mahoney strain); assay type: binding
[2] = system: Mouse brain capillary endotherial cells (MBEC) 4
[3] = system: poliovirus (Mahoney strain); assay type: binding; remark: listed apart in the source
[4] = system: poliovirus (Mahoney strain); assay type: binding; remark: listed apart in the source
[5] = system: Mouse brain capillary endotherial cells (MBEC) 4; remark: listed apart in the source

## SEQ ID NO: 6 (TQFPPSRSS; listed as Homo sapiens)
[1]
  binding to poliovirus (western blotting after purification): directly involved with the binding to poliovirus

## dextran
[2]
  PS value (permeation rate, permeation activity): 0.20

## Strep-mTfR1
[3]
  binding to poliovirus: bands in western blotting after purification: bands were detected
[4]
  binding to poliovirus: band in western blotting after purification: band was detected

## GST-mTfR1 (TQFPPSQSS; not fully specified (N-terminus))
[4]
  binding to poliovirus: band in western blotting after purification: band was similarly detected

## transferrin
[2]
  effect on the permeation of poliovirus through the blood-brain barrier: inhibits the permeation of poliovirus

## fluorescence-labeled transferrin
[5]
  PS value: 0.33

## SEQ ID NO: 7 (TQFPPVASS; listed as Homo sapiens)
[1]
  binding to poliovirus (western blotting after purification): directly involved with the binding to poliovirus

## SEQ ID NO: 8 (TQFPPVESS; listed as Mus musculus)
[1]
  binding to poliovirus (western blotting after purification): directly involved with the binding to poliovirus
